Our source for the IC50 values is ChEMBL document CHEMBL1137765, “Design and synthesis of novel chloramphenicol amine derivatives as potent aminopeptidase N (APN/CD13) inhibitors” (Bioorg Med Chem, 2009).

In the first assay the target is T1, Aminopeptidase N (Sus scrofa, UniProt P15145).
T1 sequence (P15145 whole entry): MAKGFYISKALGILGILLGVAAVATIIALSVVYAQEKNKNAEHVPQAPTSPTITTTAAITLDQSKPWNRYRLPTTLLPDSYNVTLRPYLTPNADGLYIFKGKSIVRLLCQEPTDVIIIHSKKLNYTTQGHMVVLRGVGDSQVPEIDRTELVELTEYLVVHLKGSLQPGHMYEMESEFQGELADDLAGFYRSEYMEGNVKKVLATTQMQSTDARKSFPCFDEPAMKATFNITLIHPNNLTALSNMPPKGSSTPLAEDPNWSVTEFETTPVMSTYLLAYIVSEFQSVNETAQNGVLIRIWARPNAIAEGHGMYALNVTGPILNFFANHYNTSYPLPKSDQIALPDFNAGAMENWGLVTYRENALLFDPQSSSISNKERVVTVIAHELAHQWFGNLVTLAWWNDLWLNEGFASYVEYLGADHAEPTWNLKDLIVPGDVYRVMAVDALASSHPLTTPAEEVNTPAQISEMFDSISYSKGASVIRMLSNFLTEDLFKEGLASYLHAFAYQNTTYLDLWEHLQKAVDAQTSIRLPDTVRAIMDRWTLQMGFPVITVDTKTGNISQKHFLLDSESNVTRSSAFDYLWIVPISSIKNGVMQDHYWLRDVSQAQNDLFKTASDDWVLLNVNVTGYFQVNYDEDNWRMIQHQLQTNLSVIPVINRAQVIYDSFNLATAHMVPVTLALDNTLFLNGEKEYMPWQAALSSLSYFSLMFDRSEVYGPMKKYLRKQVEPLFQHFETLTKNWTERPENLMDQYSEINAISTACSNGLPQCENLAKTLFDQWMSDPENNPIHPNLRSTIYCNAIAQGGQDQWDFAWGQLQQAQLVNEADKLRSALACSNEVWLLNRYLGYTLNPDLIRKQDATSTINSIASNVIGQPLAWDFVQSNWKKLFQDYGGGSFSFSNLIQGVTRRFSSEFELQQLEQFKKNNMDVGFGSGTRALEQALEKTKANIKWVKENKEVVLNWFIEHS
The assay is described as follows: Inhibition of pig kidney microsomal Aminopeptidase N.
Conditions: not given
For orientation: IC50 means the concentration that gives 50% inhibition. Read a low IC50 as inhibition by little substance. Compound `N[C@@H](C(=O)N[C@@H](Cc1cc2ccccc2[nH]1)C(=O)O)[C@@H](O)c1ccc([N+](=O)[O-])cc1` displayed an IC50 of 162 µM. For the compound `CC(C)C[C@H](NC(=O)[C@H](N)[C@@H](O)c1ccc([N+](=O)[O-])cc1)C(=O)NO`, the IC50 came out at 54 µM. This IC50 is about 3-fold lower than that of the compound before.

On to `N[C@@H](C(=O)NCCCC(=O)O)[C@@H](O)c1ccc([N+](=O)[O-])cc1`, for which the concentration for half-maximal inhibition (IC50) is 2890 µM. On the same count and under the same terms, to `N[C@@H](C(=O)NCCCCCC(=O)O)[C@@H](O)c1ccc([N+](=O)[O-])cc1` belongs 1390 µM. Same read-out and setting: to `CC(C)C[C@H](NC(=O)[C@H](N)[C@@H](O)c1ccc([N+](=O)[O-])cc1)C(=O)O` belongs 85.6 µM; to `N[C@@H](C(=O)N[C@@H](Cc1ccccc1)C(=O)O)[C@@H](O)c1ccc([N+](=O)[O-])cc1`, 60.4 µM. `N[C@@H](C(=O)O)[C@@H](O)c1ccc([N+](=O)[O-])cc1` returned a 50% inhibitory concentration (IC50) of 140 µM.

Turning to `N[C@@H](C(=O)NCCc1ccccc1Cl)[C@@H](O)c1ccc([N+](=O)[O-])cc1`, half-maximal inhibition (IC50) was put at 137 µM. The IC50 values of the last two compounds are within 1.5-fold of each other. On the same count and under the same terms, under `N[C@@H](C(=O)NCCc1ccc(O)cc1)[C@@H](O)c1ccc([N+](=O)[O-])cc1` stands 51.4 µM; under `N[C@@H](C(=O)N[C@H](CO)Cc1ccccc1)[C@@H](O)c1ccc([N+](=O)[O-])cc1`, 116 µM; under `N[C@@H](C(=O)NCCc1ccc2c(c1)OCO2)[C@@H](O)c1ccc([N+](=O)[O-])cc1`, 90.3 µM. On the same count and under the same terms, under `N[C@@H](C(=O)NCc1ccccc1)[C@@H](O)c1ccc([N+](=O)[O-])cc1` stands 170 µM; under `N[C@@H](C(=O)NCc1ccc(F)cc1)[C@@H](O)c1ccc([N+](=O)[O-])cc1`, 302 µM; under `CCCCNC(=O)[C@H](N)[C@@H](O)c1ccc([N+](=O)[O-])cc1`, 233 µM. Still for that read-out and setting: to `CCCCCNC(=O)[C@H](N)[C@@H](O)c1ccc([N+](=O)[O-])cc1` belongs 522 µM; to `COc1ccc(CNC(=O)[C@H](N)[C@@H](O)c2ccc([N+](=O)[O-])cc2)cc1`, 145 µM. The compound `CCCNC(=O)[C@H](N)[C@@H](O)c1ccc([N+](=O)[O-])cc1` returned an IC50 of 183 µM. As for `CC(C)NC(=O)[C@H](N)[C@@H](O)c1ccc([N+](=O)[O-])cc1`, the IC50 was determined as 251 µM. On the same count and under the same terms, under `N[C@@H](C(=O)NCCc1ccccc1)[C@@H](O)c1ccc([N+](=O)[O-])cc1` stands 106 µM; under `N[C@@H](C(=O)N[C@@H](Cc1ccccc1)C(=O)N[C@@H](Cc1ccccc1)C(=O)O)[C@@H](O)c1ccc([N+](=O)[O-])cc1`, 7.1 µM; under `N[C@@H](C(=O)N[C@@H](Cc1ccccc1)C(=O)NO)[C@@H](O)c1ccc([N+](=O)[O-])cc1`, 31.3 µM. For `CC(C)C[C@H](NC(=O)[C@H](N)[C@@H](O)c1ccc([N+](=O)[O-])cc1)C(=O)N[C@@H](Cc1ccccc1)C(=O)O`, half-maximal inhibition (IC50) required 34.6 µM. `CC(C)[C@H](NC(=O)[C@H](N)[C@@H](O)c1ccc([N+](=O)[O-])cc1)C(=O)O` had a 50% inhibitory concentration (IC50) of 160 µM. Against the preceding compound, the IC50 is about 4.6-fold higher.

Consider `N[C@@H](C(=O)NC1CCCCC1)[C@@H](O)c1ccc([N+](=O)[O-])cc1`, for which 251 µM corresponded to half-maximal inhibition (IC50). This IC50 lies about 1.6-fold higher than the previous one.

For the next assay, the system named is HL-60. The assay can be described thus: cells. The note with it: Homo sapiens, HL-60, 48 h.
Description: Antiproliferative activity against human HL60 cells after 48 hrs by MTT assay
As for `N[C@@H](C(=O)N[C@@H](Cc1ccccc1)C(=O)N[C@@H](Cc1ccccc1)C(=O)O)[C@@H](O)c1ccc([N+](=O)[O-])cc1`, the IC50 worked out at 2210 µM. In other words, the millimolar range.

`CC(C)C[C@H](NC(=O)[C@H](N)[C@@H](O)c1ccc([N+](=O)[O-])cc1)C(=O)N[C@@H](Cc1ccccc1)C(=O)O` yielded an IC50 of 2020 µM. On the same count and under the same terms, to `CC(C)C[C@H](NC(=O)[C@@H](O)[C@H](N)Cc1ccccc1)C(=O)O` [UBENIMEX] belongs 1650 µM.
